Source: ChEMBL document CHEMBL3044624, “Cycloate, an inhibitor of fatty acid elongase, modulates the metabolism of very-long-side-chain alkylresorcinols in rye seedlings” (Pest Manag Sci, 2009)

Tests used:
Secale cereale [1] = experiment: Change in alkylresorcinol homologue composition in dry shoots of green Secale cereale (rye) seedlings grown from compound-treated seeds at 29 +/-2 degC assessed as C21:1 content at 46 uM by GC/EI-MS analysis (reference value: 0.04 mg/kg dry weight); type: functional
Secale cereale [2] = experiment: Toxicity against green Secale cereale (rye) seedlings assessed as dry biomass of seedling grown at 22 +/-2 degC at 46 uM measured at 5 days after compound-treated seed germination (reference value: 3.28 +/-0.02 g); type: organism-based; details: in vivo, 120 h
Secale cereale [3] = experiment: Toxicity against green Secale cereale (rye) seedlings assessed as fresh biomass of seedling grown at 15 +/-2 degC at 46 uM measured at 5 days after compound-treated seed germination (reference value: 10.70 +/-0.28 g); type: organism-based; details: in vivo, 120 h
Secale cereale [4] = experiment: Change in alkylresorcinol homologue composition in dry shoots of green Secale cereale (rye) seedlings grown from compound-treated seeds at 15 +/-2 degC assessed as C19:1 content at 46 uM by GC/EI-MS analysis (reference value: 0.23 mg/kg dry weight); type: functional
Secale cereale [5] = experiment: Change in alkylresorcinol homologue composition in dry shoots of green Secale cereale (rye) seedlings grown from compound-treated seeds at 22 +/-2 degC assessed as C19:1 content at 46 uM by GC/EI-MS analysis (reference value: 0.20 mg/kg dry weight); type: functional
Secale cereale [6] = experiment: Change in alkylresorcinol homologue composition in dry shoots of green Secale cereale (rye) seedlings grown from compound-treated seeds at 15 +/-2 degC assessed as C17:0 content at 46 uM by GC/EI-MS analysis (reference value: 1.46 mg/kg dry weight); type: functional
Secale cereale [7] = experiment: Change in alkylresorcinol homologue composition in dry shoots of green Secale cereale (rye) seedlings grown from compound-treated seeds at 29 +/-2 degC assessed as C17:0 content at 46 uM by GC/EI-MS analysis (reference value: 0.75 mg/kg dry weight); type: functional
Secale cereale [8] = experiment: Change in alkylresorcinol homologue composition in dry shoots of green Secale cereale (rye) seedlings grown from compound-treated seeds at 15 +/-2 degC assessed as C17:1 content at 46 uM by GC/EI-MS analysis (reference value: 0.17 mg/kg dry weight); type: functional
Secale cereale [9] = experiment: Change in alkylresorcinol content in dry shoots of green Secale cereale (rye) seedlings grown from compound-treated seeds at 29 +/-2 degC at 46 uM by thin layer chromatography (reference value: 1.94 +/-0.02 mg/kg dry weight); type: functional
Secale cereale [10] = experiment: Toxicity against etiolated Secale cereale (rye) seedlings assessed as dry biomass of seedling grown at 22 +/-2 degC at 46 uM measured at 5 days after compound-treated seed germination (reference value: 2.52 +/-0.05 g); type: organism-based; details: in vivo, 120 h
Secale cereale [11] = experiment: Toxicity against etiolated Secale cereale (rye) seedlings assessed as dry biomass of seedling grown at 29 +/-2 degC at 46 uM measured at 5 days after compound-treated seed germination (reference value: 2.13 +/-0.03 g); type: organism-based; details: in vivo, 120 h
Secale cereale [12] = experiment: Change in alkylresorcinol homologue composition in dry shoots of etiolated Secale cereale (rye) seedlings grown from compound-treated seeds at 29 +/-2 degC assessed as C17:1 content at 46 uM by GC/EI-MS analysis (reference value: 0.05 mg/kg dry weight); type: functional
Secale cereale [13] = experiment: Change in alkylresorcinol homologue composition in dry shoots of etiolated Secale cereale (rye) seedlings grown from compound-treated seeds at 22 +/-2 degC assessed as C15:0 content at 46 uM by GC/EI-MS analysis (reference value: 0.60 mg/kg dry weight); type: functional
Secale cereale [14] = experiment: Change in alkylresorcinol content in dry shoots of etiolated Secale cereale (rye) seedlings grown from compound-treated seeds at 15 +/-2 degC at 46 uM by thin layer chromatography (reference value: 8.13 +/-0.14 mg/kg dry weight); type: functional
Secale cereale [15] = experiment: Change in alkylresorcinol homologue composition in dry shoots of etiolated Secale cereale (rye) seedlings grown from compound-treated seeds at 22 +/-2 degC assessed as C25:0 content at 46 uM by GC/EI-MS analysis (reference value: 0.08 mg/kg dry weight); type: functional
Secale cereale [16] = experiment: Change in alkylresorcinol homologue composition in dry shoots of etiolated Secale cereale (rye) seedlings grown from compound-treated seeds at 22 +/-2 degC assessed as C23:0 content at 46 uM by GC/EI-MS analysis (reference value: 0.37 mg/kg dry weight); type: functional
Secale cereale [17] = experiment: Change in alkylresorcinol homologue composition in dry shoots of etiolated Secale cereale (rye) seedlings grown from compound-treated seeds at 29 +/-2 degC assessed as C23:1 content at 46 uM by GC/EI-MS analysis; type: functional
Secale cereale [18] = experiment: Change in alkylresorcinol homologue composition in dry shoots of etiolated Secale cereale (rye) seedlings grown from compound-treated seeds at 15 +/-2 degC assessed as C19:0 content at 46 uM by GC/EI-MS analysis (reference value: 1.77 mg/kg dry weight); type: functional
Secale cereale [19] = experiment: Change in alkylresorcinol homologue composition in dry shoots of etiolated Secale cereale (rye) seedlings grown from compound-treated seeds at 15 +/-2 degC assessed as C17:0 content at 46 uM by GC/EI-MS analysis (reference value: 3.25 mg/kg dry weight); type: functional
Secale cereale [20] = experiment: Change in alkylresorcinol content in dry shoots of etiolated Secale cereale (rye) seedlings grown from compound-treated seeds at 22 +/-2 degC at 46 uM by thin layer chromatography (reference value: 6.22 +/-0.09 mg/kg dry weight); type: functional
Secale cereale [21] = experiment: Change in alkylresorcinol homologue composition in dry shoots of green Secale cereale (rye) seedlings grown from compound-treated seeds at 22 +/-2 degC assessed as C25:0 content at 46 uM by GC/EI-MS analysis (reference value: 0.11 mg/kg dry weight); type: functional
Secale cereale [22] = experiment: Change in alkylresorcinol homologue composition in dry shoots of green Secale cereale (rye) seedlings grown from compound-treated seeds at 15 +/-2 degC assessed as C21:0 content at 46 uM by GC/EI-MS analysis (reference value: 0.41 mg/kg dry weight); type: functional
Secale cereale [23] = experiment: Change in alkylresorcinol homologue composition in dry shoots of green Secale cereale (rye) seedlings grown from compound-treated seeds at 22 +/-2 degC assessed as C21:0 content at 46 uM by GC/EI-MS analysis (reference value: 0.23 mg/kg dry weight); type: functional
Secale cereale [24] = experiment: Change in alkylresorcinol homologue composition in dry shoots of green Secale cereale (rye) seedlings grown from compound-treated seeds at 29 +/-2 degC assessed as C21:0 content at 46 uM by GC/EI-MS analysis (reference value: 0.20 mg/kg dry weight); type: functional
Secale cereale [25] = experiment: Change in alkylresorcinol homologue composition in dry shoots of green Secale cereale (rye) seedlings grown from compound-treated seeds at 15 +/-2 degC assessed as C21:1 content at 46 uM by GC/EI-MS analysis; type: functional
Secale cereale [26] = experiment: Change in alkylresorcinol homologue composition in dry shoots of etiolated Secale cereale (rye) seedlings grown from compound-treated seeds at 15 +/-2 degC assessed as C19:1 content at 46 uM by GC/EI-MS analysis (reference value: 0.54 mg/kg dry weight); type: functional

For CCSC(=O)N(CC)C1CCCCC1 [CYCLOATE], the Activity (Secale cereale [1]) was 0.38 mg/kg, the Activity (Secale cereale [2]) was 2.03 g and the Activity (Secale cereale [3]) was 4.73 g. It also gave an Activity (Secale cereale [4]) of 0.37 mg/kg, an Activity (Secale cereale [5]) of 0.36 mg/kg and an Activity (Secale cereale [6]) of 2.75 mg/kg. It also gave an Activity (Secale cereale [7]) of 5.42 mg/kg, an Activity (Secale cereale [8]) of 0.34 mg/kg and an Activity (Secale cereale [9]) of 13.96 mg/kg. For the same molecule, the Activity (Secale cereale [10]) was 1.5 g, the Activity (Secale cereale [11]) was 2.32 g and the Activity (Secale cereale [12]) was 0.98 mg/kg. The Activity (Secale cereale [13]) was 0.1 mg/kg, the Activity (Secale cereale [14]) was 13.11 mg/kg and the Activity (Secale cereale [15]) was 0.06 mg/kg. It also gave an Activity (Secale cereale [16]) of 0.3 mg/kg, an Activity (Secale cereale [17]) of 0.07 mg/kg and an Activity (Secale cereale [18]) of 2.64 mg/kg. For the same molecule, the Activity (Secale cereale [19]) was 5.74 mg/kg, the Activity (Secale cereale [20]) was 2.94 mg/kg and the Activity (Secale cereale [21]) was 0.07 mg/kg. For the same molecule, the Activity (Secale cereale [22]) was 0.55 mg/kg, the Activity (Secale cereale [23]) was 0.05 mg/kg and the Activity (Secale cereale [24]) was 1.34 mg/kg. It also gave an Activity (Secale cereale [25]) of 0.19 mg/kg and an Activity (Secale cereale [26]) of 1.08 mg/kg.
